# Patent EP4104902B1, “COMPOUNDS AND M[…] SAME” (priority 2020, dated 2021)
# Like-named read-outs stand apart in the source and are kept apart here.
# Test system: recombinant rabies virus 1088 strain expressing Gaussia Luciferase (GLuc) (1088/GLuc)
# Assay type: cell-based
SMILES,IC50 (read-out: Anti-rabies activity) [µM],IC50 (read-out: IC50) [µM]
O=C(NCCO)[C@@]12C[C@@H]3CN(CC4CCCCC4)[C@@H]([C@@H]3CN1)[C@H]2Cc1ccccc1 (relative stereo) [IF-486],10 to 30,–
NC(=O)CCNC(=O)C12CC3CN(Cc4cccc5ccccc45)C(C3CN1)C2Cc1ccc(O)cc1 (stereo not shown) [IF-435],< 5,–
CC(C)CNC(=O)[C@@]12C[C@@H]3CN(Cc4ccccc4)[C@@H]([C@@H]3CN1)[C@H]2Cc1ccccc1 (relative stereo) [IF-6],10 to 30,16.3
O=C(O)CCC1C2CNC3(C(=O)NCc4cccc5ccccc45)C(C2)CN(CC2CCCCC2)C13 (stereo not shown) [IB-389],10 to 30,–
CN1CC2CC3C=NC2(C(=O)NCCc2cccc4ncccc24)C1C3Cc1ccccc1 (stereo not shown) [IIB-330],< 5,–
O=C(NCCO)[C@@]12C[C@@H]3CN(CCc4ccccc4)[C@@H]([C@@H]3CN1)[C@H]2Cc1cccc2ccccc12 (relative stereo) [IF-612],10 to 30,–
CC(C)CNC(=O)[C@@]12C[C@@H]3CN(Cc4ccc(F)cc4)[C@@H]([C@@H]3CN1)[C@H]2CC(N)=O (relative stereo) [IF-262],< 5,–
CCCCCCNC(=O)C12NCC3CC1CN(CC(N)=O)C2C3CCc1ccccc1 (stereo not shown) [IB-109],10 to 30,–
CC(C)CC1C2C3C=NC1(C(=O)NCc1ccccc1)CC3CN2Cc1ccc(C(C)(C)C)cc1 (stereo not shown) [IIF-95],< 5,–
CC(C)NC(=O)[C@]12NC[C@@H]3C[C@H]1CN(CCCNC(=N)N)[C@H]2[C@@H]3CCc1ccccc1 (relative stereo) [IB-179],10 to 30,–
CCCCCCNC(=O)[C@]12NC[C@@H]3C[C@H]1CN(CCCNC(=N)N)[C@H]2[C@@H]3CCc1ccccc1 (relative stereo) [IB-174],10 to 30,–
CC(C)CC[C@@H]1[C@@H]2CN[C@@]3(C(=O)NCCCNC(=N)N)[C@@H](C2)CN(CCc2ccccc2)[C@@H]13 (relative stereo) [IB-346],10 to 30,–
NC(=O)CN1C[C@@H]2C[C@H]3CN[C@]2(C(=O)NCc2cccc4ccccc24)[C@@H]1[C@@H]3Cc1ccc(O)cc1 (relative stereo) [IB-83],10 to 30,–
CC(C)CCNC(=O)[C@@]12C[C@@H]3CN(Cc4ccc(F)cc4)[C@@H]([C@@H]3CN1)[C@H]2Cc1ccccc1 (relative stereo) [IF-584],< 5,–
O=C(NCCO)[C@]12NC[C@@H]3C[C@H]1CN(Cc1cccc4ccccc14)[C@H]2[C@@H]3Cc1ccc(O)cc1 (relative stereo) [IB-459],10 to 30,–
CC(C)CC[C@@H]1[C@@H]2CN[C@@]3(C(=O)NCCCNC(=N)N)[C@@H](C2)CN(Cc2ccc(F)cc2)[C@@H]13 (relative stereo) [IB-369],10 to 30,–
NC(=O)CCNC(=O)C12NCC3CC1CN(Cc1cccc4ccccc14)C2C3Cc1ccc(O)cc1 (stereo not shown) [IB-521],10 to 30,–
CC(C)CCN1CC2CC3(C(=O)NCc4ccc(O)cc4)NCC2C1C3CCC(=O)O (stereo not shown) [IF-445],10 to 30,–
CCCCCCNC(=O)[C@]12NC[C@@H]3C[C@H]1CN(CCc1ccccc1)[C@H]2[C@@H]3CCCNC(=N)N (relative stereo) [IB-256],10 to 30,–
CC(C)CC[C@@H]1[C@@H]2[C@@H]3CN[C@@]1(C(=O)NCCC(N)=O)C[C@@H]3CN2CC(C)C (relative stereo) [IF-300],10 to 30,–
CCCCCCNC(=O)[C@]12NC[C@@H]3C[C@H]1CN(Cc1ccccc1)[C@H]2[C@@H]3Cc1ccccc1 (relative stereo) [IB-562],10 to 30,–

SMILES,IC50 (read-out: Anti-rabies activity) [µM],IC50 (read-out: IC50) [µM]
CC(C)NC(=O)[C@@]12C[C@@H]3CN(Cc4cccc5ccccc45)[C@@H]([C@@H]3CN1)[C@H]2Cc1cccc2ccccc12 (relative stereo) [IF-596],10 to 30,–
CC(C)C[C@@H]1[C@@H]2[C@@H]3CN[C@@]1(C(=O)NCCc1ccccc1)C[C@@H]3CN2CC1CCCCC1 (relative stereo) [IF-711],10 to 30,–
NC(=O)CCNC(=O)[C@]12NC[C@@H]3C[C@H]1CN(CC1CCCCC1)[C@H]2[C@@H]3Cc1cccc2ccccc12 (relative stereo) [IB-522],10 to 30,–
CC(C)CC[C@@H]1[C@@H]2CN[C@@]3(C(=O)NCc4ccccc4)[C@@H](C2)CN(CCC(=O)O)[C@@H]13 (relative stereo) [IB-694],10 to 30,–
O=C(NCc1ccccc1)[C@@]12C[C@@H]3CN(Cc4cccc5ccccc45)[C@@H]([C@@H]3CN1)[C@H]2Cc1ccccc1 (relative stereo) [IF-42],10 to 30,–
CC(C)CCN1CC2CC3(C(=O)NC(C)C)NCC2C1C3CCCNC(=N)N (stereo not shown) [IF-214],10 to 30,–
O=C(O)CCNC(=O)[C@]12NC[C@@H]3C[C@H]1CN(CCO)[C@H]2[C@@H]3Cc1cccc2ccccc12 (relative stereo) [IB-610],10 to 30,–
CC(C)CCNC(=O)[C@]12NC[C@@H]3C[C@H]1CN(CC(C)C)[C@H]2[C@@H]3CCc1ccccc1 (relative stereo) [IB-688],< 5,–
CC(C)CNC(=O)[C@@]12C[C@@H]3CN(Cc4ccc(F)cc4)[C@@H]([C@@H]3CN1)[C@H]2CCc1ccccc1 (relative stereo) [IF-652],< 5,–
O=C(NCc1ccc(O)cc1)[C@]12NC[C@@H]3C[C@H]1CN(Cc1ccc(F)cc1)[C@H]2[C@@H]3Cc1ccccc1 (relative stereo) [IB-583],10 to 30,–
CC(C)CNC(=O)[C@@]12C[C@@H]3CN(CC(C)C)[C@@H]([C@@H]3CN1)[C@H]2CCc1ccccc1 (relative stereo) [IF-679],< 5,–
CC(C)CNC(=O)[C@]12NC[C@@H]3C[C@H]1CN(Cc1ccc(F)cc1)[C@H]2[C@@H]3CCc1ccccc1 (relative stereo) [IB-774],< 5,–
O=C(NCCc1ccccc1)[C@@]12C[C@@H]3CN(Cc4cccc5ccccc45)[C@@H]([C@@H]3CN1)[C@H]2Cc1ccc(O)cc1 (relative stereo) [IF-708],< 5,–
O=C(NCc1ccccc1)[C@]12NC[C@@H]3C[C@H]1CN(CCO)[C@H]2[C@@H]3Cc1ccccc1 (relative stereo) [IB-619],10 to 30,–
O=C(O)CCN1CC2CC3CNC2(C(=O)NCc2ccc(O)cc2)C1C3CCc1ccccc1 (stereo not shown) [IB-515],10 to 30,–
CCCCCCNC(=O)C12NCC3CC1CN(CC(N)=O)C2C3CCC(C)C (stereo not shown) [IB-108],10 to 30,–
CC(C)CN1C[C@@H]2C[C@H]3CN[C@]2(C(=O)NCCc2ccccc2)[C@@H]1[C@@H]3Cc1ccccc1 (relative stereo) [IB-12],10 to 30,15.5
CCCCCCNC(=O)[C@@]12C[C@@H]3CN(Cc4ccccc4)[C@@H]([C@@H]3CN1)[C@H]2Cc1ccc(O)cc1 (relative stereo) [IF-692],< 5,–
CC(C)CC[C@@H]1[C@@H]2CN[C@@]3(C(=O)NCCC(N)=O)[C@@H](C2)CN(Cc2cccc4ccccc24)[C@@H]13 (relative stereo) [IB-349],< 5,–
CC(C)CCNC(=O)[C@@]12C[C@@H]3CN(CCO)[C@@H]([C@@H]3CN1)[C@H]2Cc1ccccc1 (relative stereo) [IF-656],10 to 30,–
CC(C)C[C@@H]1[C@@H]2[C@@H]3CN[C@@]1(C(=O)NCCc1ccccc1)C[C@@H]3CN2Cc1ccc(F)cc1 (relative stereo) [IF-714],< 5,–

SMILES,IC50 (read-out: Anti-rabies activity) [µM],IC50 (read-out: IC50) [µM]
CC(C)C[C@@H]1[C@@H]2CN[C@@]3(C(=O)NCc4ccccc4)[C@@H](C2)CN(CCc2ccccc2)[C@@H]13 (relative stereo) [IB-757],< 5,–
O=C(NCCO)[C@]12NC[C@@H]3C[C@H]1CN(Cc1ccc(F)cc1)[C@H]2[C@@H]3CCc1ccccc1 (relative stereo) [IB-669],10 to 30,–
CC(C)C[C@@H]1[C@@H]2[C@@H]3CN[C@@]1(C(=O)NCc1ccc(O)cc1)C[C@@H]3CN2Cc1cccc2ccccc12 (relative stereo) [IF-473],< 5,–
CC(C)CNC(=O)[C@]12NC[C@@H]3C[C@H]1CN(Cc1ccc(F)cc1)[C@H]2[C@@H]3Cc1ccc(O)cc1 (relative stereo) [IB-631],10 to 30,–
Cc1ccc(CNC(=O)[C@@]23C[C@@H]4CN(CCC(C)C)[C@@H]([C@@H]4C=N2)[C@H]3Cc2ccccc2)cc1 (relative stereo) [IIF-328],< 5,–
NC(=O)CCNC(=O)C12NCC3CC1CN(Cc1ccccc1)C2C3Cc1ccccc1 (stereo not shown) [IB-734],10 to 30,–
CC(C)CCC1C2CNC3(C(=O)NCc4ccccc4)C(C2)CN(CC(C)C)C13 (stereo not shown) [IB-875],10 to 30,–
CC(C)CCN1C[C@@H]2C[C@H]3CN[C@]2(C(=O)NCc2ccc(O)cc2)[C@@H]1[C@@H]3CCc1ccccc1 (relative stereo) [IB-576],10 to 30,–
CC(C)CCN1CC2CC3CNC2(C(=O)NCc2ccccc2)C1C3Cc1ccc(O)cc1 (stereo not shown) [IB-749],10 to 30,–
CC(C)CCN1CC2CC3(C(=O)NCCc4ccccc4)NCC2C1C3CC(C)C (stereo not shown) [IF-437],10 to 30,–
CC(C)CC[C@@H]1[C@@H]2[C@@H]3CN[C@@]1(C(=O)NCCO)C[C@@H]3CN2Cc1ccc(F)cc1 (relative stereo) [IF-490],10 to 30,–
CC(C)CC1C2C3C=NC1(C(=O)NCc1ccccc1)CC3CN2Cc1ccc(N(C)C)cc1 (stereo not shown) [IIF-94],5 to 10,–
CC(C)CC[C@@H]1[C@@H]2[C@@H]3CN[C@@]1(C(=O)NCCc1ccccc1)C[C@@H]3CN2CC(C)C (relative stereo) [IF-727],< 5,–
CC(C)CNC(=O)C12NCC3CC1CN(Cc1ccc(O)cc1)C2C3CCCNC(=N)N (stereo not shown) [IB-203],10 to 30,–
O=C(NCCc1ccccc1)[C@@]12C[C@@H]3CN(CCO)[C@@H]([C@@H]3CN1)[C@H]2Cc1cccc2ccccc12 (relative stereo) [IF-610],10 to 30,–
CC(C)CC[C@@H]1[C@@H]2[C@@H]3CN[C@@]1(C(=O)NCc1ccccc1)C[C@@H]3CN2CC(C)C (relative stereo) [IF-675],< 5,–
CC(C)C[C@@H]1[C@@H]2[C@@H]3CN[C@@]1(C(=O)NCc1cccc4ccccc14)C[C@@H]3CN2CC(C)C (relative stereo) [IF-726],10 to 30,–
O=C(NCCc1ccccc1)[C@@]12C[C@@H]3CN(CC4CCCCC4)[C@@H]([C@@H]3CN1)[C@H]2Cc1ccccc1 (relative stereo) [IF-710],< 5,–
NC(=O)C[C@@H]1[C@@H]2[C@@H]3CN[C@@]1(C(=O)NCCc1ccccc1)C[C@@H]3CN2CC1CCCCC1 (relative stereo) [IF-251],10 to 30,–
N=C(N)NCCC[C@@H]1[C@@H]2[C@@H]3CN[C@@]1(C(=O)NCc1ccc(F)cc1)C[C@@H]3CN2Cc1cccc2ccccc12 (relative stereo) [IF-245],< 5,–
